Assay results: patent US20250361253A1, “STING AGONIST COMPOUNDS” (Sutro Biopharma, Inc., priority 2022, published 2025)

Experiments:
hSTING-R232 = target: T1, hSTING-R232 (Homo sapiens, UniProt Q86WV6, H232R); test: ISG reporter induction in 293-Dual hSTING-R232 reporter cells (QUANTI-Blue); assay type: cell-based; settings: 293-Dual hSTING-R232 cells, overnight incubation
T1 construct: host or cells: 293-Dual (HEK293-derived) reporter cells
Description: (§1) Certain STING compounds of the disclosure were evaluated in an in vitro cell based assay.
(§2) 293-Dual hSTING-R232 and mSTING cells (Invivogen) were seeded at 25,000 cells/well (50 ul) and co-cultured with STING agonists (2× concentration, 50 ul) in clear, half-area, 96-well polystyrene plates. Cells and test samples were prepared in DMEM supplemented with 10% FBS, Glutamax, and PenStrep. After overnight incubation at 37 C in a CO2 incubator, 20 ul of supernatant was added to QUANTI-Blue detection reagent (Invivogen). After one hour incubation at 37 C, plates were read at 640/650 nm on EnVision plate reader (PerkinElmer). OD values were plotted by log(agonist) vs. response, variable slope, four parameter curve fit (Log transform) using GraphPad Prism software to determine EC50 values.

mSTING = target: T2, mSTING (Mus musculus, UniProt Q3TBT3); test: ISG reporter induction in 293-Dual mSTING reporter cells (QUANTI-Blue); assay type: cell-based; settings: 293-Dual mSTING cells, overnight incubation
T2 construct: host or cells: 293-Dual (HEK293-derived) reporter cells
T2 sequence (Q3TBT3 1-378): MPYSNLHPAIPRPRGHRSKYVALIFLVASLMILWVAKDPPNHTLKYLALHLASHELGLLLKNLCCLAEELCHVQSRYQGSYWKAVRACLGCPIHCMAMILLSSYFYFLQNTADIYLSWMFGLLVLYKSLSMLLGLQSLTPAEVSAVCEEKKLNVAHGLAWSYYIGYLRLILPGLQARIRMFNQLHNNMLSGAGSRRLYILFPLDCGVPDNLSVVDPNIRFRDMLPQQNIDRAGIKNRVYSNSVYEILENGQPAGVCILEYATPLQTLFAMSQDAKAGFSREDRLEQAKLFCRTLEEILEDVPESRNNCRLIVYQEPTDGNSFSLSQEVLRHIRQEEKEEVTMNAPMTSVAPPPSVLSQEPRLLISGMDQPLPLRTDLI
Description: as §1, §2

hSTING WT [1] = target: T3, hSTING WT (Homo sapiens, UniProt Q86WV6); test: Thermal shift assay (DSF); assay type: binding; set-up: unit not given here; settings: compound at 3.12 uM
Description: Thermal shift assay experimental methods were followed based on the published methods described in Ramanjulu et al. Nature, 2018, 564, 439.

hSTING WT [2] = target: T3, hSTING WT; test: Surface plasmon resonance assay; assay type: binding; settings: read-out: hSTING WT SPR (Kd)
Description: Surface plasmon resonance assay experimental methods were followed based on the published methods described in Pan et al., Science, 2020 369, eaba6098. (“A” means EC50≤20 nM).

T1 sequence (Q86WV6 whole entry H232R): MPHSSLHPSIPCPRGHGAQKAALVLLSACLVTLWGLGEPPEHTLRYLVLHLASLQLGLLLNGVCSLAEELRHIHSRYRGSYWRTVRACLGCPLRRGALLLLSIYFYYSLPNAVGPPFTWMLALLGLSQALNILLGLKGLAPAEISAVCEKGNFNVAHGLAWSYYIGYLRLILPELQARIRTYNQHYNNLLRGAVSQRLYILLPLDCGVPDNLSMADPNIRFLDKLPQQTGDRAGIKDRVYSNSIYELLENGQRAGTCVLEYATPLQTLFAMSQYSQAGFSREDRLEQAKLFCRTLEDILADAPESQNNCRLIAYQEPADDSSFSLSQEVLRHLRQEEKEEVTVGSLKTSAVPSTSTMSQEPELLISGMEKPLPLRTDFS
T3 sequence (Q86WV6 155-341 H232R limits assumed): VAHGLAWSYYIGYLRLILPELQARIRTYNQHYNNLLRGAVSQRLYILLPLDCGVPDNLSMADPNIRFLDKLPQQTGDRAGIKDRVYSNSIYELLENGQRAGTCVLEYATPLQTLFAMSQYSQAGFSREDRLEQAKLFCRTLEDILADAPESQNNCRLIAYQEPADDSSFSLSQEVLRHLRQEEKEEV

SMILES | EC50 (hSTING-R232) [nM] | EC50 (mSTING) [nM] | hSTING WT DSF (delta TmD @ 3.12 uM) (hSTING WT [1]) | Kd (hSTING WT [2]) [nM]
COc1cc2sc(/C=C/CC(=O)O)cc2c(F)c1OCCCOc1c(OC)cc2sc(/C=C/CC(=O)O)cc2c1F [Compound 33] | > 150 | > 150 | – | –
COc1cc2sc(C(=O)CC(C)(C)C(=O)O)cc2c(C)c1OCCCOc1c(OC)cc2sc(C(=O)CP(=O)(O)O)cc2c1C [Compound 34] | > 150 | > 150 | – | –
COc1cc2sc(C(=O)CCP(=O)(O)O)cc2c(F)c1OCCCOc1c(OC)cc2sc(C(=O)CC(C)(C)C(=O)O)cc2c1F [Compound 21] | > 150 | ≤ 50 | – | –
COc1cc2sc(C(=O)CC(C)(C)C(=O)O)cc2c(F)c1OCCCOc1c(OC)cc2sc(C(=O)CC(C)(C)C(=O)NS(=O)(=O)CCN)cc2c1F [Compound 17, 4-(5-(3-((2-(4-((2-Aminoethyl)sulfonamido)-3,3-dimethyl-4-oxobutanoyl)-4-fluoro-6-methoxybenzo[b]thiophen-5-yl)oxy)propoxy)-4-fluoro-6-methoxybenzo[b]thiophen-2-yl)-2,2-dimethyl-4-oxobutanoic acid] | > 150 | > 150 | – | –
COc1cc2nc(C(=O)CCC(=O)O)ccc2c(F)c1OCCCOc1c(OC)cc2sc(C(=O)CC(C)(C)C(=O)O)cc2c1F [Compound 23, 4-(5-(3-((2-(3-Carboxypropanoyl)-5-fluoro-7-methoxyquinolin-6-yl)oxy)propoxy)-4-fluoro-6-methoxybenzo[b]thiophen-2-yl)-2,2-dimethyl-4-oxobutanoic acid] | ≤ 50 | ≤ 50 | – | –
COc1cc2sc(C(=O)CC(C)(C)C(=O)O)cc2c(F)c1OCCCOc1c(OC)cc2sc(C(=O)CC(C)(C)P(=O)(O)O)cc2c1F [Compound 9, 4-(4-Fluoro-5-(3-((4-fluoro-6-methoxy-2-(3-methyl-3-phosphonobutanoyl)benzo[b]thiophen-5-yl)oxy)propoxy)-6-methoxybenzo[b]thiophen-2-yl)-2,2-dimethyl-4-oxobutanoic acid] | > 150 | > 150 | – | –
COc1cc2cc(C(=O)CCC(=O)O)ccc2c(F)c1OCCCOc1c(OC)cc2sc(C(=O)CC(C)(C)C(=O)O)cc2c1F [Compound 16, 4-(5-(3-((6-(3-Carboxypropanoyl)-1-fluoro-3-methoxynaphthalen-2-yl)oxy)propoxy)-4-fluoro-6-methoxybenzo[b]thiophen-2-yl)-2,2-dimethyl-4-oxobutanoic acid] | > 150 | > 150 | – | –
COc1cc2sc(CCP(=O)(O)O)cc2c(F)c1OCCCOc1c(OC)cc2sc(C(=O)CC(C)(C)C(=O)O)cc2c1F [Compound 19] | > 150 | > 150 | – | –
COc1cc2sc(C(=O)CC(C)(C)C(=O)O)cc2c(F)c1OCCCOc1c(OC)cc2sc(C(=O)CP(=O)(OC)OC)cc2c1F [Compound 4, 4-(5-(3-((2-(2-(Dimethoxyphosphoryl)acetyl)-4-fluoro-6-methoxybenzo[b]thiophen-5-yl)oxy)propoxy)-4-fluoro-6-methoxybenzo[b]thiophen-2-yl)-2,2-dimethyl-4-oxobutanoic acid] | > 150 | 50 to 150 | – | –
COc1cc2sc(/C=C/CC(=O)O)cc2c(F)c1OCCCOc1c(OC)cc2sc(C(=O)CP(=O)(O)O)cc2c1F [Compound 32] | 50 to 150 | > 150 | – | –
COc1cc2sc(C(=O)CCS(=O)(=O)O)cc2c(F)c1OCCCOc1c(OC)cc2sc(C(=O)CC(C)(C)C(=O)O)cc2c1F [Compound 14, 4-(4-fluoro-5-(3-((4-fluoro-6-methoxy-2-(3-sulfopropanoyl)benzo[b]thiophen-5-yl)oxy)propoxy)-6-methoxybenzo[b]thiophen-2-yl)-2,2-dimethyl-4-oxobutanoic acid] | > 150 | ≤ 50 | – | –
COc1cc2sc(C(=O)CC(C)(C)C(=O)O)cc2c(F)c1OCCCOc1c(OC)cc2sc(C(=O)CS(=O)(=O)O)cc2c1F [Compound 1, 4-(4-Fluoro-5-(3-((4-fluoro-6-methoxy-2-(2-sulfoacetyl)benzo[b]thiophen-5-yl)oxy)propoxy)-6-methoxybenzo[b]thiophen-2-yl)-2,2-dimethyl-4-oxobutanoic acid] | > 150 | 50 to 150 | 20 | ≤ 20
COc1cc2sc(C(=O)CC(C)(C)C(=O)O)cc2c(F)c1OCCCOc1c(OC)cc2sc(C(=O)CC(C)(C)C(=O)NCCN)cc2c1F [Compound 18] | > 150 | > 150 | – | –
COc1cc2sc(/C=C/CC(=O)O)cc2c(F)c1OCCCOc1c(OC)cc2sc(C(=O)CC(C)(C)C(=O)O)cc2c1F [Compound 11, (E)-4-(5-(3-((2-(3-carboxy-3-methylbutanoyl)-4-fluoro-6-methoxybenzo[b]thiophen-5-yl)oxy)propoxy)-4-fluoro-6-methoxybenzo[b]thiophen-2-yl)but-3-enoic acid] | ≤ 50 | ≤ 50 | – | –
COC(=O)C(C)(C)CC(=O)c1cc2c(F)c(OCCCOc3c(OC)cc4sc(C(=O)CP(=O)(O)O)cc4c3F)c(OC)cc2s1 [Compound 5, (2-(4-Fluoro-5-(3-((4-fluoro-6-methoxy-2-(4-methoxy-3,3-dimethyl-4-oxobutanoyl)benzo[b]thiophen-5-yl)oxy)propoxy)-6-methoxybenzo[b]thiophen-2-yl)-2-oxoethyl)phosphonic acid] | 50 to 150 | 50 to 150 | −0.1 | –
COC(=O)C(C)(C)CC(=O)c1cc2c(F)c(OCCCOc3c(OC)cc4sc(C(=O)CS(=O)(=O)O)cc4c3F)c(OC)cc2s1 [Compound 2, 2-(4-Fluoro-5-(3-((4-fluoro-6-methoxy-2-(4-methoxy-3,3-dimethyl-4-oxobutanoyl)benzo[b]thiophen-5-yl)oxy)propoxy)-6-methoxybenzo[b]thiophen-2-yl)-2-oxoethane-1-sulfonic acid] | > 150 | 50 to 150 | – | –
COc1cc2sc(C(=O)CC(C)(C)C(=O)O)cc2c(F)c1OCCCOc1c(OC)cc2sc(C(=O)CP(=O)(O)O)cc2c1F [Compound 6, 4-(4-Fluoro-5-(3-((4-fluoro-6-methoxy-2-(2-phosphonoacetyl)benzo[b]thiophen-5-yl)oxy)propoxy)-6-methoxybenzo[b]thiophen-2-yl)-2,2-dimethyl-4-oxobutanoic acid] | ≤ 50 | ≤ 50 | 20 | ≤ 20
COc1cc2sc(C(=O)CC(C)(C)C(=O)O)cc2c(F)c1OCCCOc1ccc2cc(C(=O)CCC(=O)O)ccc2c1F [Compound 15, 4-(5-(3-((6-(3-Carboxypropanoyl)-1-fluoronaphthalen-2-yl)oxy)propoxy)-4-fluoro-6-methoxybenzo[b]thiophen-2-yl)-2,2-dimethyl-4-oxobutanoic acid] | > 150 | > 150 | – | –
COC(=O)C(C)(C)CC(=O)c1cc2c(F)c(OCCCOc3c(OC)cc4sc(C(=O)CC(C)(C)P(=O)(O)O)cc4c3F)c(OC)cc2s1 [Compound 10] | > 150 | > 150 | – | –
COc1cc2sc(C(=O)CCC(=O)O)cc2c(F)c1OCCCOc1c(OC)cc2sc(C(=O)CP(=O)(O)O)cc2c1F [Compound 20] | ≤ 50 | ≤ 50 | – | –
COC(=O)C(C)(C)CC(=O)c1cc2c(F)c(OCCCOc3c(OC)cc4sc(C(=O)CP(=O)(OC)OC)cc4c3F)c(OC)cc2s1 [Compound 3, Methyl 4-(5-(3-((2-(2-(dimethoxyphosphoryl)acetyl)-4-fluoro-6-methoxybenzo[b]thiophen-5-yl)oxy)propoxy)-4-fluoro-6-methoxybenzo[b]thiophen-2-yl)-2,2-dimethyl-4-oxobutanoate] | > 150 | > 150 | – | –
COc1cc2cc(C(=O)CCC(=O)O)ccc2cc1OCCCOc1c(OC)cc2sc(C(=O)CC(C)(C)C(=O)O)cc2c1F [Compound 22] | > 150 | > 150 | – | –
COc1cc2sc(C(=O)CC(C)(C)C(=O)O)cc2c(F)c1OCCCOc1ccc2cc(C(=O)CCC(=O)O)ccc2c1 [Compound 13, 4-(5-(3-((6-(3-Carboxypropanoyl)naphthalen-2-yl)oxy)propoxy)-4-fluoro-6-methoxybenzo[b]thiophen-2-yl)-2,2-dimethyl-4-oxobutanoic acid] | 50 to 150 | 50 to 150 | – | –
COc1cc2sc(C(=O)CC(C)(C)C(=O)O)cc2c(F)c1OCCCOc1c(OC)cc2sc(C3CC3CC(=O)O)cc2c1F (centres unmarked) [Compound 12, 4-(5-(3-((2-(2-(carboxymethyl)cyclopropyl)-4-fluoro-6-methoxybenzo[b]thiophen-5-yl)oxy)propoxy)-4-fluoro-6-methoxybenzo[b]thiophen-2-yl)-2,2-dimethyl-4-oxobutanoic acid] | > 150 | 50 to 150 | – | –
